Laboratory results from ChEMBL document CHEMBL5143645, “Synthesis of harmine-nitric oxide donor derivatives as potential antitumor agents” (Bioorg Med Chem Lett, 2022).
The source made the active and inactive calls. No cut-off for these calls is given here.

Assays:
[1] = Stability in Sprague-Dawley rat plasma assessed as parent compound remaining at 40 uM measured up to 36 hrs by HPLC analysis; format: ADME, cell-free
HepG2 [2] = test: Induction of cell cycle arrest in human HepG2 cells assessed as accumulation of cells at G2/M phase at 15 uM incubated for 24 hrs by PI staining based flow cytometry analysis (reference value: 14.58%); format: functional
[3] = Apparent permeability across apical to basolateral side in human Caco-2 cells at 2 uM measured after 2 hrs by […] dye based microplate reader analysis; format: ADME, cell-based
HCT-116 = test: Antiproliferative activity against human HCT-116 cells assessed as reduction in cell viability incubated for 72 hrs by CCK-8 assay; format: functional, cell-based; details: HCT-116, 72 h
HepG2 [4] = test: Induction of apoptosis in human HepG2 cells assessed as late apoptotic cells at 1.5 uM incubated for 24 hrs by PI and annexin V-FITC staining based flow cytometry (reference value: 0.36%); format: functional
[5] = Stability of the compound in PBS at pH 7.4 assessed as parent compound remaining at 40 uM measured up to 36 hrs by HPLC analysis; format: physicochemical; details: buffer, pH 7.4, 36 h
HepG2 [6] = test: Induction of cell cycle arrest in human HepG2 cells assessed as accumulation of cells at G1 phase at 7.5 uM incubated for 24 hrs by PI staining based flow cytometry analysis (reference value: 42.39%); format: functional
[7] = Acute toxicity in ICR mouse assessed as death time at 10 mg/kg, ip measured over 14 days; format: organism-based; details: in vivo, 336 h, time 14 day
HepG2 [8] = test: Induction of NO release in human HepG2 cells assessed as increase in mean fluorescence intensity at 1.5 uM incubated for 72 hrs by DAF-FM DA dye based fluorescence microscopic analysis; format: functional, cell-based
HepG2 [9] = test: Induction of apoptosis in human HepG2 cells assessed as viable cells at 1.5 uM incubated for 24 hrs by PI and annexin V-FITC staining based flow cytometry (reference value: 93.97%); format: functional; details: read-out: Activity
HepG2 [10] = test: Induction of NO release in human HepG2 cells assessed as increase in mean fluorescence intensity at 1 uM incubated for 72 hrs by DAF-FM DA dye based fluorescence microscopic analysis; format: functional, cell-based
[11] = Cytotoxicity against human L02 cells assessed as reduction in cell viability incubated for 72 hrs by CCK-8 assay; format: toxicity, cell-based
[12] = Acute toxicity in ICR mouse assessed as abnormality in drinking at less than 100 mg/kg, ip measured over 14 days; format: organism-based; details: in vivo, 336 h, time 14 day
HepG2 [13] = test: Induction of apoptosis in human HepG2 cells assessed as viable cells at 7.5 uM incubated for 24 hrs by PI and annexin V-FITC staining based flow cytometry (reference value: 93.97%); format: functional; details: read-out: Activity
[14] = Acute toxicity in ICR mouse assessed as change in activity at less than 100 mg/kg, ip measured over 14 days; format: organism-based; details: in vivo, 336 h, time 14 day
A549 = test: Antiproliferative activity against human A549 cells assessed as reduction in cell viability incubated for 72 hrs by CCK-8 assay; format: functional, cell-based; details: A549, 72 h
HepG2 [15] = test: Induction of cell cycle arrest in human HepG2 cells assessed as accumulation of cells at G1 phase at 1.5 uM incubated for 24 hrs by PI staining based flow cytometry analysis (reference value: 42.39%); format: functional
HepG2 [16] = test: Induction of cell cycle arrest in human HepG2 cells assessed as accumulation of cells at S phase at 1.5 uM incubated for 24 hrs by PI staining based flow cytometry analysis (reference value: 42.03%); format: functional
HepG2 [17] = test: Induction of apoptosis in human HepG2 cells assessed as early apoptotic cells at 15 uM incubated for 24 hrs by PI and annexin V-FITC staining based flow cytometry (reference value: 2.68%); format: functional
[18] = Acute toxicity in ICR mouse assessed as death time at 50 mg/kg, ip measured over 14 days; format: organism-based; details: in vivo, 336 h, time 14 day
HepG2 [19] = test: Induction of apoptosis in human HepG2 cells assessed as viable cells at 15 uM incubated for 24 hrs by PI and annexin V-FITC staining based flow cytometry (reference value: 93.97%); format: functional; details: read-out: Activity
HepG2 [20] = test: Induction of cell cycle arrest in human HepG2 cells assessed as accumulation of cells at G2/M phase at 1.5 uM incubated for 24 hrs by PI staining based flow cytometry analysis (reference value: 14.58%); format: functional
HepG2 [21] = test: Induction of apoptosis in human HepG2 cells assessed as necrotic cells at 1.5 uM incubated for 24 hrs by PI and annexin V-FITC staining based flow cytometry (reference value: 0.36%); format: functional
HepG2 [22] = test: Induction of cell cycle arrest in human HepG2 cells assessed as accumulation of cells at G2/M phase at 7.5 uM incubated for 24 hrs by PI staining based flow cytometry analysis (reference value: 14.58%); format: functional
HepG2 [23] = test: Induction of cell cycle arrest in human HepG2 cells assessed as accumulation of cells at S phase at 15 uM incubated for 24 hrs by PI staining based flow cytometry analysis (reference value: 42.03%); format: functional
HepG2 [24] = test: Induction of cell cycle arrest in human HepG2 cells assessed as accumulation of cells at S phase at 7.5 uM incubated for 24 hrs by PI staining based flow cytometry analysis (reference value: 42.03%); format: functional
HepG2 [25] = test: Induction of apoptosis in human HepG2 cells assessed as late apoptotic cells at 15 uM incubated for 24 hrs by PI and annexin V-FITC staining based flow cytometry (reference value: 0.36%); format: functional
HepG2 [26] = test: Induction of apoptosis in human HepG2 cells assessed as early apoptotic cells at 7.5 uM incubated for 24 hrs by PI and annexin V-FITC staining based flow cytometry (reference value: 2.68%); format: functional
[27] = Acute toxicity in ip dosed ICR mouse assessed as maximum tolerated dose measured over 14 days; format: organism-based; details: in vivo, time 14 day
HepG2 [28] = test: Induction of cell cycle arrest in human HepG2 cells assessed as accumulation of cells at G1 phase at 15 uM incubated for 24 hrs by PI staining based flow cytometry analysis (reference value: 42.39%); format: functional
[29] = Acute toxicity in ICR mouse assessed as change in body weight at less than 100 mg/kg, ip measured over 14 days; format: organism-based; details: in vivo, 336 h, time 14 day
HepG2 [30] = test: Induction of apoptosis in human HepG2 cells assessed as necrotic cells at 15 uM incubated for 24 hrs by PI and annexin V-FITC staining based flow cytometry (reference value: 0.36%); format: functional
HepG2 [31] = test: Induction of apoptosis in human HepG2 cells assessed as early apoptotic cells at 1.5 uM incubated for 24 hrs by PI and annexin V-FITC staining based flow cytometry (reference value: 2.68%); format: functional
MCF7 = test: Antiproliferative activity against human MCF7 cells assessed as reduction in cell viability incubated for 72 hrs by CCK-8 assay; format: functional, cell-based; details: MCF7, 72 h
[32] = Acute toxicity in ICR mouse assessed as abnormality in eating at less than 100 mg/kg, ip measured over 14 days; format: organism-based; details: in vivo, 336 h, time 14 day
[33] = Apparent permeability across basolateral to apical side in human Caco-2 cells at 2 uM measured after 2 hrs by […] dye based microplate reader analysis; format: ADME, cell-based
HepG2 [34] = test: Induction of NO release in human HepG2 cells assessed as increase in mean fluorescence intensity at 1 to 9 uM incubated for 72 hrs by DAF-FM DA dye based fluorescence microscopic analysis; format: functional, cell-based; details: dose 1-9 µM
HepG2 [35] = test: Induction of apoptosis in human HepG2 cells assessed as necrotic cells at 7.5 uM incubated for 24 hrs by PI and annexin V-FITC staining based flow cytometry (reference value: 0.36%); format: functional
HepG2 [36] = test: Induction of apoptosis in human HepG2 cells assessed as late apoptotic cells at 7.5 uM incubated for 24 hrs by PI and annexin V-FITC staining based flow cytometry (reference value: 0.36%); format: functional
BGC-823 = test: Antiproliferative activity against human BGC-823 cells assessed as reduction in cell viability incubated for 72 hrs by CCK-8 assay; format: functional, cell-based; details: BGC-823, 72 h
HepG2 [37] = test: Antiproliferative activity against human HepG2 cells assessed as reduction in cell viability incubated for 72 hrs by CCK-8 assay; format: functional, cell-based; details: HepG2, 72 h

## Br.Cc1c2c(cc[n+]1Cc1ccccc1)c1ccc(OCC(=O)OCCCCOc3no[n+]([O-])c3S(=O)(=O)c3ccccc3)cc1n2CCCc1ccccc1
[1]
  Stability: Stable
HepG2 [2]
  Activity: 30.22%
[3]
  Papp A→B at 2 h, 2 µM: < 0.05 ×10⁻⁶ cm/s
HCT-116
  IC50: 7.77 µM
HepG2 [4]
  Activity: 4.28%
[5]
  Stability: Stable
HepG2 [6]
  Activity: 33.77%
[7]
  Activity: Non-Toxic
HepG2 [8]
  Activity: Active
HepG2 [9]
  viability at 1.5 µM: 81.2%
HepG2 [10]
  Activity: Active
[11]
  IC50 at 72 h: 10 µM
[12]
  Activity: Non-Toxic
HepG2 [13]
  viability at 7.5 µM: 77.2%
[14]
  Activity: Non-Toxic
A549
  IC50: 3.43 µM
HepG2 [15]
  Activity: 40.68%
HepG2 [16]
  Activity: 40.75%
HepG2 [17]
  Activity: 20.86%
[18]
  Activity: Non-Toxic
HepG2 [19]
  viability at 15 µM: 58.3%
HepG2 [20]
  Activity: 18.57%
HepG2 [21]
  Activity: 4.44%
HepG2 [22]
  Activity: 20.03%
HepG2 [23]
  Activity: 36.56%
HepG2 [24]
  Activity: 46.2%
HepG2 [25]
  Activity: 14.73%
HepG2 [26]
  Activity: 12.78%
[27]
  MTD at 336 h: 100 mg/kg
HepG2 [28]
  Activity: 33.22%
[29]
  Activity: Non-Toxic
HepG2 [30]
  Activity: 6.08%
HepG2 [31]
  Activity: 10.11%
MCF7
  IC50: 2.85 µM
[32]
  Activity: Non-Toxic
[33]
  Papp B→A at 2 h, 2 µM: < 0.05 ×10⁻⁶ cm/s
HepG2 [34]
  Activity: Active
HepG2 [35]
  Activity: 4.45%
HepG2 [36]
  Activity: 5.56%
BGC-823
  IC50: 8.68 µM
HepG2 [37]
  IC50: 1.79 µM

## COc1ccc2c(c1)[nH]c1c(C)nccc12 [HARMINE]
HCT-116
  IC50: 6.94 µM
[7]
  Activity: Non-Toxic
[11]
  IC50 at 72 h: 25.1 µM
A549
  IC50: 5.23 µM
MCF7
  IC50: 15.3 µM
BGC-823
  IC50: 15.6 µM
HepG2 [37]
  IC50: 16.8 µM

## O=S(=O)(c1ccccc1)c1c(OCCCO)no[n+]1[O-]
HCT-116
  IC50: 9.11 µM
[11]
  IC50 at 72 h: 21.7 µM
A549
  IC50: 7.93 µM
MCF7
  IC50: 7.33 µM
BGC-823
  IC50: 11.8 µM
HepG2 [37]
  IC50: 6.6 µM

## O=S(=O)(c1ccccc1)c1c(OCCCCO)no[n+]1[O-]
HCT-116
  IC50: 6.16 µM
[11]
  IC50 at 72 h: 17.9 µM
A549
  IC50: 3.49 µM
MCF7
  IC50: 4.94 µM
BGC-823
  IC50: 3.14 µM
HepG2 [37]
  IC50: 4.99 µM

## COc1cccc2c1C(=O)c1c(O)c3c(c(O)c1C2=O)C[C@@](O)(C(=O)CO)C[C@@H]3O[C@H]1C[C@H](N)[C@H](O)[C@H](C)O1 [DOXORUBICIN]
HCT-116
  IC50: 0.87 µM
A549
  IC50: 1.05 µM
MCF7
  IC50: 0.38 µM
BGC-823
  IC50: 0.66 µM
HepG2 [37]
  IC50: 0.425 µM

## Cc1c2c(cc[n+]1Cc1ccccc1)c1ccc(OCC(=O)O)cc1n2CCCc1ccccc1
HCT-116
  IC50: 40 µM
[11]
  IC50 at 72 h: 90.3 µM
A549
  IC50: 52.9 µM
MCF7
  IC50: 26.1 µM
BGC-823
  IC50: 37.4 µM
HepG2 [37]
  IC50: 113 µM
